Target: hemoglobin (Homo sapiens, UniProt P68871+P69905)
Test: resonance Raman spectroscopy of oxygenated hemoglobin, percentage of "R" state
Format: biochemical
Conditions: varying mole ratio to hemoglobin tetramer, 532 nm excitation, oxygen atmosphere
From the text: In order to evaluate the effect of ferulic acid on stabilizing the oxygenated hemoglobin in the low oxygen affinity “T” state, compounds including 2,3-BPG (group A0) and ferulic acid (group A1) are mixed with hemoglobin as a function of their mole ratio to hemoglobin, followed by the resonance Raman spectroscopy measurements at 532 nm excitation wavelength under the oxygen atmosphere. The percentages of the high oxygen affinity “R” state for hemoglobin treated with 2,3-BPG (shown in FIG. 2a, as reference) and ferulic acid (shown in FIG. 2b) are analyzed from the resonance Raman spectroscopy measurements. In more specific, the percentage of high oxygen affinity “R” state for each treated hemoglobin was obtained by fitting a simulated spectrum comprised of adjustable weighing factors of the T and R states of pure hemoglobin to the obtained resonance Raman spectrum of treated hemoglobin.

Sequence of hemoglobin (P69905 2-142): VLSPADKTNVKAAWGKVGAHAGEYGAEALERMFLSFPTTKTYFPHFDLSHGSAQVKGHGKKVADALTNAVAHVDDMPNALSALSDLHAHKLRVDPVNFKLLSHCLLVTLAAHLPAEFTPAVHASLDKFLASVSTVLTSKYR
Sequence of hemoglobin (P68871 2-147): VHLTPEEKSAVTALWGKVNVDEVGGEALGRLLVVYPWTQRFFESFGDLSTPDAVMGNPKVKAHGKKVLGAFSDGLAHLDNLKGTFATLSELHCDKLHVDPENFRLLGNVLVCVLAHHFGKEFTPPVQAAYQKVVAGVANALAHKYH

## COc1cc(/C=C/C(=O)O)ccc1O [ferulic acid]
  "R" state suppression efficiency: higher than 50%

## O=C(O)C(COP(=O)(O)O)OP(=O)(O)O (centres unmarked) [2,3-BPG, 2,3-bisphosphoglycerate]
  "R" state suppression efficiency: about 20%

— US20160058722A1, “METHOD FOR IMPROVING THE OXYGEN-RELEASING ABILITY OF HEMOGLOBIN TO ORGANS AND PERIPHERAL TISSUES IN HUMAN BODIES” (NATIONAL SUN YAT-SEN UNIVERSITY, priority 2014, published 2016)
